The values below come from ChEMBL document CHEMBL3507680, “University of Dundee, Gates Library screen for HepG2 cell viability”.

Molecules are shown by their SMILES.

This data set is described as follows: Human HepG2 cell viability assay in 384 well format. Format: toxicity, cell-based. Details: dose 125 nL, time 70.5 hour; cytotoxicity at 70.5 h: concentration not given beside the values. Conditions: HepG2 cells, read-out: Inhibition.
As to `Cc1csc2ncc(-c3ccnc(N4CCC[C@H](C(N)=O)C4)n3)c(=O)n12`, the cytotoxicity at 70.5 h is 14.4%.

`Cn1cc(NC(=O)c2cccc3cccnc23)ccc1=O`: the cytotoxicity at 70.5 h was -18.3%.

As for `O=C(CC1CC1)N1CCN(Cc2ccncc2)c2ncccc2C1`, the cytotoxicity at 70.5 h was -11.9%.

`Cc1ccc(CN2CCOCC3(C2)CN(c2ccc(C)s2)C(=O)CO3)o1` (configuration not stated): the cytotoxicity at 70.5 h was found to be 0.222%.

Turning to `Cc1noc(C2(C)CCN(C(=O)C(C)C)CC2)n1`, the cytotoxicity at 70.5 h was -5.14%.

On to `COc1ccc(C2(CNC(C)c3nnc(C)o3)CCCCC2)cc1` (configuration not stated), for which the cytotoxicity at 70.5 h was -8.26%.

Turning to `OCC1(O)CCN(c2ccnc3c(C(F)(F)F)cccc23)CC1`, the cytotoxicity at 70.5 h was -3.41%.

Consider `Cn1c(=O)ccn(CC(=O)Nc2cccnc2)c1=O`, for which the cytotoxicity at 70.5 h was determined as 12.6%.

Consider `COc1ncccc1C1CC(=O)NCc2nc3sccn3c21` (configuration not stated), for which the cytotoxicity at 70.5 h was -12.8%.

Regarding `Cc1c(CCC(=O)N2CCOC(c3cnccn3)C2)cnn1C` (configuration not stated), the cytotoxicity at 70.5 h is -2.28%.

On to `Fc1ccccc1C(CNc1ccncn1)N1CCCC1` (configuration not stated), for which the cytotoxicity at 70.5 h is -8.28%.

With `Cc1cc(CN2CCN(CC(O)C(C)(C)C)CC2)no1` (configuration not stated), the cytotoxicity at 70.5 h worked out at 9.4%.

On to `CN1CCN2C[C@@H](CO)[C@H](c3ccccc3)[C@H]2C1`, for which the cytotoxicity at 70.5 h was -5.05%.

Turning to `CC(C#N)CNC(=O)Nc1ccc(-c2cc[nH]n2)cc1` (configuration not stated), the cytotoxicity at 70.5 h is -1.44%.

As for `CN(C)CCCNC(=O)c1ccc(Cl)cc1Cl`, the cytotoxicity at 70.5 h is -14.1%.

Consider `COc1ccccc1CC(=O)NC(CC(=O)O)c1ccc(C)cc1` (configuration not stated), for which the cytotoxicity at 70.5 h is -6.19%.

As to `O=C(Nc1cc(C(F)(F)F)ccc1Cl)c1ccc(N2CCOCC2)nn1`, the cytotoxicity at 70.5 h is -0.689%.

Take `CCN(CC)C(=O)Nc1cc2c(cc1SC)OCCO2`: the cytotoxicity at 70.5 h is -6.83%.

Regarding `O=C(c1cccnc1O)N1CCCC2(C=Cc3ccccc3O2)CC1` (configuration not stated), the cytotoxicity at 70.5 h is -4.51%.

With `NCc1cnn(-c2ccccc2C(=O)NCc2ccncc2)c1`, the cytotoxicity at 70.5 h is -8.5%.

In the case of `Cn1nccc1CCC(=O)N1CCOC(c2cnccn2)C1` (configuration not stated), the cytotoxicity at 70.5 h was -12.6%.

`COc1ncc(-c2cc(NCCN(C)C)nc3[nH]ccc23)c(OC)n1`: the cytotoxicity at 70.5 h came out at 15.3%.

`O=C(N1CCCC1)N1CCO[C@H]2[C@@H](OCc3cccnc3)CC[C@@H]21`: the cytotoxicity at 70.5 h was -8.11%.

In the case of `Cc1cc(F)cc2c(NCC(C)(C)C(N)=O)c(C#N)cnc12`, the cytotoxicity at 70.5 h was found to be 11.6%.

Consider `O=C(C1CCN(c2ncnc3cccc(F)c23)CC1)N1CCCC1`, for which the cytotoxicity at 70.5 h was 8.28%.

Regarding `c1ccc(-n2ccnc2)c(CNCC2CNc3ccnn3C2)c1` (configuration not stated), the cytotoxicity at 70.5 h is -20.8%.

In the case of `COCC(=O)N(C)Cc1nc(N(C)C)ncc1-c1ccncc1`, the cytotoxicity at 70.5 h was -11.3%.

On to `CCOC(=O)CCNC(=O)N1CCCC(CNC(=O)c2cccs2)C1` (configuration not stated), for which the cytotoxicity at 70.5 h was -6.29%.

With `Cc1cc(F)ccc1N1CCCC(NC(=O)CCc2ccncc2)C1` (configuration not stated), the cytotoxicity at 70.5 h was -23.5%.

With `CC1CCCN(c2ccccc2OCC(=O)N2CCOCC2)C1` (configuration not stated), the cytotoxicity at 70.5 h turned out to be 17.5%.

In the case of `Cc1nnc(NC(=O)NC2CCOc3ccccc32)s1` (configuration not stated), the cytotoxicity at 70.5 h was -9.45%.

Turning to `CCc1nccn1C1CCCN(C(=O)CCCNc2ncccn2)C1` (configuration not stated), the cytotoxicity at 70.5 h was -1.35%.

As for `CN(C)S(=O)(=O)NC1CCCc2c1cnn2-c1ccc(C(C)(C)C)cc1` (configuration not stated), the cytotoxicity at 70.5 h is -2.4%.

Take `Cn1nccc1-c1cccc(CC2CCN(S(C)(=O)=O)C2)n1` (configuration not stated): the cytotoxicity at 70.5 h is -4.28%.

As to `O=C(C1CCC1)N1CCN(Cc2ccccc2F)[C@H]2CS(=O)(=O)C[C@H]21`, the cytotoxicity at 70.5 h was -4.65%.

Regarding `CNC(=O)c1cc2c(nc1NCC1CC1)CCN(CC1CC1)CC2`, the cytotoxicity at 70.5 h is -26.7%.

For `CN(C)c1ncnc2c1CCN(C(=O)c1sccc1S(N)(=O)=O)C2`, the cytotoxicity at 70.5 h is -2.96%.

As for `O=C(c1cc(-c2cccs2)cs1)N1CCSCC1`, the cytotoxicity at 70.5 h was -5.68%.

For `Cc1ccc(C)c2c(O)cc(CN3CCC(=O)NCC3C)nc12` (configuration not stated), the cytotoxicity at 70.5 h was -8.42%.

As for `CN(Cc1nc(-c2ccccc2)no1)C(=O)CNS(C)(=O)=O`, the cytotoxicity at 70.5 h was -8.66%.

As to `Cc1cc(C2CCN(S(=O)(=O)c3cn(C)cn3)CC2)ccn1`, the cytotoxicity at 70.5 h was -9.79%.

With `Cc1cc(N(C)C)nc(N2CCCC2c2ccccn2)n1` (configuration not stated), the cytotoxicity at 70.5 h was -3.12%.

Turning to `CN(C)CC(=O)N1CCC2(CC1)COCCN(c1ncccn1)C2`, the cytotoxicity at 70.5 h is 22.5%.

Take `Cn1cc(C(=O)N2CC[C@@H]3[C@@H]2CCN3c2ccccn2)cn1`: the cytotoxicity at 70.5 h was -5.62%.

With `CCNc1ncc(C(=O)NCCc2ccc(C)c(C)c2)cn1`, the cytotoxicity at 70.5 h is -4.37%.

With `Cn1cc(CN2CCCC(CCc3ccc(F)cc3)C2)cn1` (configuration not stated), the cytotoxicity at 70.5 h was determined as 8.18%.

Take `c1csc(-c2noc(C3CCCNC3)n2)c1` (configuration not stated): the cytotoxicity at 70.5 h was -16.5%.

For `O=C(c1ccco1)N1CC(S(=O)(=O)c2ccc(Cl)cc2)C1`, the cytotoxicity at 70.5 h is -10.1%.

In the case of `CCN(CC)CCN(CC(C)C)c1cc(C(F)(F)F)nc2ncnn12`, the cytotoxicity at 70.5 h worked out at 0.687%.

On to `COc1ccc(OC)c(C2CCN(Cc3nc(C)n4ccccc34)C2)c1` (configuration not stated), for which the cytotoxicity at 70.5 h is -12.6%.

With `CCC(C)CNc1ccc2oc(COC)nc2c1` (configuration not stated), the cytotoxicity at 70.5 h is 42.8%.

For the compound `CCn1ccnc1CN1CCN(C(C)C(=O)N2CCCCCC2)CC1` (configuration not stated), the cytotoxicity at 70.5 h was -1.03%.

Consider `Cc1nc(C)c(C(=O)NCCNc2cc(N3CCCC3)ncn2)s1`, for which the cytotoxicity at 70.5 h is 9.32%.

For `Clc1ccccc1CCn1ccnc1-c1cn(C2CCNCC2)nn1`, the cytotoxicity at 70.5 h was -8.18%.

As for `O=C(NCC1CC1)c1cc(Br)cnc1N1CCCCC1`, the cytotoxicity at 70.5 h is -1.59%.

Consider `NCC(CO)Cc1ccc(OC(F)(F)F)cc1` (configuration not stated), for which the cytotoxicity at 70.5 h is -5.55%.

As for `CN1CC2(CCN(Cc3cc(Cl)ccc3OCC(=O)O)CC2)OC1=O`, the cytotoxicity at 70.5 h was -8.9%.

Consider `CN(C)[C@@H]1CCN(c2ncc(F)cn2)[C@H]1Cc1cccnc1`, for which the cytotoxicity at 70.5 h turned out to be 17.3%.

For the compound `Fc1ccc(-c2cnc(C3CCNCC3)cn2)cc1`, the cytotoxicity at 70.5 h is -2.13%.

With `C[C@@H]1CN(C2(C(=O)N3CCNCC3)Cc3ccccc3C2)C[C@H](C)O1`, the cytotoxicity at 70.5 h is -2.17%.

With `COCCNC(=O)Cn1cc(NC(=O)c2cccc(Cl)c2Cl)cn1`, the cytotoxicity at 70.5 h was -1.6%.

For the compound `Cn1nccc1C(=O)N1C[C@@H]2CN(S(C)(=O)=O)CCO[C@@H]2C1`, the cytotoxicity at 70.5 h is -3.72%.

`CN(C)CCN(Cc1ccccc1)C(=O)C1=NNC(=O)CC1`: the cytotoxicity at 70.5 h is -6.1%.

For the compound `COCC1CN(c2ncccn2)Cc2cnn(CC3CC3)c21` (configuration not stated), the cytotoxicity at 70.5 h was -6.23%.

Take `Cc1n[nH]c(C)c1CCN(C)C(=O)c1ccc(CCC(C)(C)O)cc1`: the cytotoxicity at 70.5 h is -3.14%.

`O=C(NCC(F)(F)F)C1CN(C(=O)c2cnccn2)C1`: the cytotoxicity at 70.5 h is -9.42%.

Consider `NC(=O)C1CCN(C(=O)c2cccc(OCc3cscn3)c2)CC1`, for which the cytotoxicity at 70.5 h was -12.5%.

Consider `CCn1nc(C)c(CN2CCNCC2)c1C`, for which the cytotoxicity at 70.5 h is -5.76%.

Regarding `CCOc1ncccc1NC(=O)NC1CCCN(c2ncccn2)C1` (configuration not stated), the cytotoxicity at 70.5 h was -2.86%.

As for `CCc1nsc(N2CCC3(CC2)OCCO3)n1`, the cytotoxicity at 70.5 h is -8.49%.

As to `c1ccc2cc(OCCCN3CCn4c(nnc4C4CC4)C3)ccc2c1`, the cytotoxicity at 70.5 h was -6.02%.

Regarding `COCC(=O)N1CCC2(CC1)CN(c1ccsc1)C(=O)CO2`, the cytotoxicity at 70.5 h was -8.62%.
